Measurements reported in US20160067277A1, “USE OF XENON FOR LIMITING TUMOR CELL MIGRATION” (L'Air Liquide, Societe Anonyme pour I'Etude et …, priority 2013, published 2016).

Tests used:
Assay type in all cases: cell-based, human
MCF7 cells [1] = assay: Oris cell migration test, fluorescence-labeled cells (RFU); settings: for % cell migration relative to the control: MCF7 (ER+) cells, migration at 24 h, control atmosphere = 100%
Protocol: (§1) ER− and ER+ cancer cells (Estrogen Receptor) of a human adenocarcinoma (breast cancer), namely lines of MDA-MB-231 and MCF7 cells, were deposited on plates coated with collagen, where they adhered. These cell lines are available commercially.
(§2) The plates with the adhering cells were then placed in a sealed chamber, saturated, for 1 h, 3 h and 5 h, with: • either a control atmosphere (control), namely a gas mixture formed from 25% O2, 5% CO2 and 70% N2 (vol %); • or a test atmosphere based on xenon according to the invention, namely a gas mixture formed from 25% O2, 5% CO2 and 70% xenon (vol %).
(§3) For its part, cell migration at 24 h was determined after 24 hours, using fluorescence-labeled cells in the context of an Oris™ cell migration test. In this test, the labeled cells migrate into a target zone, where they are then quantified by a fluorescent plate reader for measuring the relative fluorescent units (RFU)).
(§4) More precisely, as already noted, several tests (3 or 4 tests) were conducted with the different gas atmospheres for different exposure times, and the results were expressed in the form of relative fluorescent units (RFU).
(§5) The migration of the cancer cells exposed to the atmosphere containing xenon was calculated as a percentage (%) relative to that of the cells exposed to the control atmosphere, i.e. exposed to an atmosphere without xenon (RFU fixed at 100%), and in the same conditions.
(§6) A two-way t-test for statistical analysis of the difference between the cell lines and the probability values P below 0.05 were considered significant.

MDA-MB-231 cells [2] = assay: as above; settings: for % cell migration relative to the control: MDA-MB-231 (ER-) cells, migration at 24 h, control atmosphere = 100%
Protocol: as §1, §2, §3, §4, §5, §6

MCF7 cells [3] = assay: MTT cell survival test; settings: 1 h, 3 h, 5 h exposure to 70% xenon, MTT after 24 hours
Protocol: as §1, §2
(§7) Cell survival was determined after 24 hours, using an MTT (for methylthaizolyldiphenyl-tetrazolium bromide) test. This test is a conventional test for determining cellular viability. It is based on detection of living cells only, via the activity of their mitochondrial dehydrogenases, which makes it possible to evaluate cytotoxicity, proliferation and/or cellular activation.

MDA-MB-231 cells [4] = assay: MTT cell survival test; settings: 1 h, 3 h, 5 h exposure to 70% xenon, MTT after 24 hours
Protocol: as §1, §2, §7

[5] = 1 h exposure to 25% O2, 5% CO2, 70% xenon
[6] = 3 h exposure to 25% O2, 5% CO2, 70% xenon
[7] = 5 h exposure to 25% O2, 5% CO2, 70% xenon

SMILES: [Xe] [xenon]
- effect on cell migration (in words) (MCF7 cells [1]; ER+ MCF7 cells, starting from 1 hour of exposure, FIG. 2): significantly reduces the migration
- % cell migration relative to the control (MCF7 cells [1]; [5]): 58 ± 12%
- % cell migration relative to the control (MCF7 cells [1]; [6]): 65 ± 12%
- % cell migration relative to the control (MCF7 cells [1]; [7]): 65 ± 12%
- effect on cell migration (in words) (MDA-MB-231 cells [2]; ER- MDA-MB-231 cells, starting from 1 hour of exposure, FIG. 1): significantly reduces the migration
- % cell migration relative to the control (MDA-MB-231 cells [2]; [5]): 59 ± 13%
- % cell migration relative to the control (MDA-MB-231 cells [2]; [6]): 64 ± 10%
- % cell migration relative to the control (MDA-MB-231 cells [2]; [7]): 71 ± 9%
- effect on cell survival (MCF7 cells [3]): does not have a significant effect on cell survival
- effect on cell survival (MDA-MB-231 cells [4]): does not have a significant effect on cell survival
